Results as given in PubChem BioAssay (NCI).
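Tested at 5 concentrations; 48 h exposure; 96-well plates; endpoints linearly interpolated, else capped at highest concentration. Abbreviation: GI50, concentration required for 50% inhibition of growth. Definition used: TGI = concentration required for complete inhibition of growth.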

Columns and labels:
Assay in all cases: inhibition of tumour cell growth, NCI panel, 48 h
LOX IMVI melanoma = test system: LOX IMVI melanoma
SK-MEL-5 melanoma = test system: SK-MEL-5 melanoma
NCI-H522 lung = test system: NCI-H522 lung
OVCAR-4 ovarian = test system: OVCAR-4 ovarian
NCI-H23 lung = test system: NCI-H23 lung
A549 NSCLC = test system: A549 NSCLC
RXF 393 renal = test system: RXF 393 renal
NCI-H226 lung = test system: NCI-H226 lung
DU-145 prostate = test system: DU-145 prostate
HCC-2998 colon = test system: HCC-2998 colon

SMILES	GI50 (LOX IMVI melanoma)	TGI (LOX IMVI melanoma)	GI50 (SK-MEL-5 melanoma)	TGI (SK-MEL-5 melanoma)	GI50 (NCI-H522 lung)	TGI (NCI-H522 lung)	GI50 (OVCAR-4 ovarian)	TGI (OVCAR-4 ovarian)	GI50 (NCI-H23 lung)	TGI (NCI-H23 lung)	GI50 (A549 NSCLC)	TGI (A549 NSCLC)	GI50 (RXF 393 renal)	TGI (RXF 393 renal)	GI50 (NCI-H226 lung)	TGI (NCI-H226 lung)	GI50 (DU-145 prostate)	TGI (DU-145 prostate)	GI50 (HCC-2998 colon)	TGI (HCC-2998 colon)
Cc1ccc(C2=NOC3=c4ccccc4=CSC3=C2c2ccc([N+](=O)[O-])cc2)cc1	16.2 µM	53.8 µM	11.4 µM	37.6 µM	12.5 µM	68.5 µM	95.6 µM	> 100 µM	17.8 µM	53.7 µM	24.5 µM	> 100 µM	18.7 µM	64.6 µM	14 µM	34 µM	15.2 µM	> 100 µM	24.4 µM	> 100 µM
COc1ccc2cc(-c3ccoc(=O)c3-c3cc(OC)c(OC)c(OC)c3)ccc2c1	1.15 µM	> 100 µM	0.0379 µM	4.1 µM	0.0206 µM	0.113 µM	1.16 µM	> 100 µM	0.141 µM		0.0775 µM	> 100 µM	0.028 µM	> 100 µM	6.69 µM	> 100 µM	0.188 µM	> 100 µM	0.0744 µM	0.426 µM
CN(C)c1ccc2c(c1)Sc1cc(N(C)C)ccc1N2C(=O)c1ccccc1	24.2 µM	> 100 µM	28.1 µM	> 100 µM			44.6 µM	> 100 µM	27.7 µM	> 100 µM	32.5 µM	> 100 µM	28.7 µM	> 100 µM	71.6 µM	> 100 µM	> 100 µM	> 100 µM	73.2 µM	> 100 µM
Cc1ccc(NC(=O)/C=C/c2ccccc2)c(C(N)=O)c1	7.87 µM	> 100 µM	1.94 µM	> 41.5 µM	1.89 µM	9.06 µM	9.17 µM	> 100 µM	4.46 µM	> 100 µM	5.28 µM	> 100 µM	2.67 µM	8.16 µM	6.46 µM	> 100 µM	3.81 µM	> 41.9 µM	5.38 µM	42.5 µM
CN(C)CCCN1c2ccccc2CCc2ccc(Cl)cc21	2.31 µM	8.16 µM	1.54 µM	2.9 µM	5.15 µM	18.1 µM	3.64 µM	16.4 µM	7.51 µM	21.9 µM	9.27 µM	23.2 µM	2 µM	7.66 µM	7.22 µM	22.5 µM	10.8 µM	23.1 µM	1.8 µM	3.75 µM
C/C(=N\Nc1ccc2ccccc2n1)c1ccccn1	0.0627 µM	1.42 µM	0.103 µM	2.24 µM		0.21 µM	< 0.0204 µM	33.5 µM	0.156 µM	13.6 µM	0.0841 µM	11.1 µM	0.229 µM	5.86 µM	0.134 µM	2.12 µM	0.107 µM	5.25 µM	0.133 µM	2.51 µM
O=C(NN1C(=O)CSC12CCCCC2)c1[nH]c2ccc(F)cc2c1-c1ccccc1	24.1 µM	61.9 µM	41.4 µM	> 100 µM	19.1 µM	58.7 µM	22.9 µM	70.9 µM	18.4 µM	50.9 µM	16.7 µM	30.6 µM	14.6 µM	29.7 µM	28.1 µM	77 µM	22.6 µM	45.2 µM	34.8 µM	92.5 µM
CCCCNCC(=O)O[C@]1(CC)C(=O)OCc2c1cc1n(c2=O)Cc2cc3ccccc3nc2-1		1.43 µM		1.27 µM		4.82 µM		20.4 µM		0.877 µM		26.7 µM		2.15 µM		2.06 µM		1.32 µM		8.76 µM
CCCCCCCCCCCCCCCCCC(=O)OCC(COC1OC(COP(=O)(O)O)C(O)C(O)C1O)OC(=O)CCCCCCCCCCCCCCCCC (stereo not given)		17.2 µM		16.6 µM				14.5 µM		15 µM		16 µM		16.8 µM		13.3 µM		16.8 µM		15.7 µM
COc1cccc(NC(=O)c2sc3nc4c(cc3c2N)CN(Cc2ccccc2)CC4)c1	4.09 µM	43.5 µM	2.15 µM	31.9 µM	15.1 µM	> 100 µM	2.68 µM	19.7 µM	7.18 µM	49.2 µM	3.79 µM	53.8 µM	2.71 µM	12.9 µM	6.03 µM	38.3 µM	5.22 µM	22.2 µM	9.13 µM	> 100 µM
CC(C)(C)c1ccc(OCCCCCCN2CCNCC2)cc1	1.83 µM	3.66 µM	1.87 µM	3.49 µM	13.6 µM	31.7 µM	9.46 µM	23.9 µM	7.59 µM	23 µM	6.95 µM	21.2 µM	1.91 µM	4.12 µM	15.3 µM	34.3 µM	10.5 µM	23.2 µM	2.38 µM	4.62 µM
CNC(=O)OCc1c(COC(=O)NC)c(C)n(-c2ccc(Br)cc2)c1C		23.9 µM		28.1 µM		25.9 µM				35.4 µM		38.1 µM		19.8 µM		4.59 µM		36.2 µM		32.2 µM
CCCn1c(C)nc2c1C(=O)c1ccccc1C2=O	22.9 µM	> 100 µM	13.4 µM	27.2 µM	18.7 µM	75.1 µM	25 µM	> 100 µM	26.7 µM	> 100 µM	28.5 µM	> 100 µM			57.3 µM	> 100 µM	23.5 µM	> 100 µM	50.2 µM	> 100 µM
Cc1ccc(-c2cc(-c3ccc(C)cc3)nc(NCCNc3ccnc4cc(Cl)ccc34)n2)cc1	1.83 µM	3.71 µM	1.83 µM	3.44 µM	1.75 µM	3.51 µM	1.63 µM	3.24 µM	1.91 µM	3.85 µM	1.74 µM	3.53 µM			1.8 µM	4.18 µM	1.81 µM	3.31 µM	1.76 µM	3.28 µM
